In patent US11191756B2, “Dosing and effect of C5a antagonist with ANCA-associated vasculitis” (CHEMOCENTRYX, INC., priority 2018, dated 2021):
“Also recorded” adds a separate entry of the source.

Columns and labels:
Format in all cases: in vivo, human
[1] = system: complement factor Bb; experiment: Plasma complement factor Bb by ELISA in AAV patients of the CLEAR trial; conditions: for Bb, change in plasma level (Summary of Results): AAV patients, 12 week treatment period, all also received cyclophosphamide or rituximab
Experimental: (§1) The CLEAR trial (Jayne D R W, et al. JASN 2017; 28:2756) compared 3 regimens in 67 patients with AAV: (1) full dose prednisone (60 mg daily, tapered); (2) avacopan 30 mg twice daily plus low dose prednisone (20 mg, tapered); (3) avacopan 30 mg twice daily plus no prednisone. All also received either cyclophosphamide or rituximab. There was a 12-week treatment period with 12 week follow-up period
(§2) Plasma samples were collected from AAV patients who participated in CLEAR study at baseline and at 6 hour, Days 8, 29, and 85 during treatment. Plasma samples from 20 health controls matched for age, gender and ethnic background were collected at UNC Kidney Center.
(§3) EDTA whole blood was kept on ice immediately after collection and centrifuged at 4° C. for plasma preparation. Plasma samples were stored at −80° C. freezer until analysis for complement Bb, C5a, […] and properdin by ELISA in one thaw.
(§4) Paired t-test was used for within group comparison and unpaired t-test was used for between group comparisons using log transformed data. P-values were corrected for multiple comparisons.

[2] = system: complement factor C5a; experiment: Plasma complement factor C5a by ELISA in AAV patients of the CLEAR trial; conditions: for C5a, change in plasma level (Summary of Results): AAV patients, 12 week treatment period, all also received cyclophosphamide or rituximab
Experimental: as §1, §2, §3, §4

[3] = system: sC5b-9; experiment: Plasma sC5b-9 by ELISA in AAV patients of the CLEAR trial; conditions: for sC5b-9, change in plasma level (Summary of Results): AAV patients, 12 week treatment period, all also received cyclophosphamide or rituximab; for circulating sC5b-9 levels, change from baseline: any treatment group, 6 h, days 8, 29, 85
Experimental: as §1, §2, §3, §4

[4] = system: properdin; experiment: Plasma properdin by ELISA in AAV patients of the CLEAR trial; conditions: for Properdin, change in plasma level (Summary of Results): AAV patients, 12 week treatment period, all also received cyclophosphamide or rituximab; for circulating properdin levels, change from baseline: any treatment group, 6 h, days 8, 29, 85
Experimental: as §1, §2, §3, §4

[5] = system: complement factor C3a; experiment: Plasma complement factor C3a by ELISA in AAV patients of the CLEAR trial; conditions: for C3a, change in plasma level (Summary of Results): AAV patients, 12 week treatment period, all also received cyclophosphamide or rituximab; for C3a levels compared to baseline: full dose prednisone
Experimental: as §1, §2, §3, §4

[6] = system: patients with AAV; experiment: CLEAR trial clinical outcome in ANCA-associated vasculitis; conditions: for clinical benefit / improvement in AAV: 12 week treatment period, avacopan 30 mg twice daily
From the text: (A) plots the Birmingham Vasculitis Activity Score; (B) plots the urinary albumin to creatine ration; (C) plots the EuroQOL-5D-5L visual analgue scale; (D) plots the Short Form-36 physical functioning results; and (E) plots the Short Form-36 role emotional results. Patients receiving high dose prednisone are plotted with diamonds; patients receiving avacopan with low dose prednisone are plotted with squares; and patients receiving avacopan with no prednisone are plotted with triangles.
as §1

[7] = CLEAR trial, AAV patients, avacopan with low dose or no prednisone
[8] = day 85, when prednisone was tapered

Row | Structure (SMILES) | Bb, change in plasma level (Summary of Results) [1] | C5a, change in plasma level (Summary of Results) [2] | sC5b-9, change in plasma level (Summary of Results) [3] | circulating sC5b-9 levels, change from baseline [3] | Properdin, change in plasma level (Summary of Results) [4] | circulating properdin levels, change from baseline [4] | C3a, change in plasma level (Summary of Results) [5] | further results
1 | Cc1ccc(NC(=O)[C@H]2CCCN(C(=O)c3c(C)cccc3F)[C@H]2c2ccc(NC3CCCC3)cc2)cc1C(F)(F)F [Avacopan, avacopan] | No changes | No changes | No changes | did not change; also recorded: No statistically significant changes | No changes | No statistically significant changes | No changes | Bb levels during treatment compared to pre-dose ([1]; avacopan 30 mg twice daily with low dose or no prednisone, 6 h, days 8, 29, 85): did not impact; also recorded: No change; C5a levels during treatment compared to baseline ([2]; avacopan 30 mg twice daily with low or no prednisone, 6 h, days 8, 29, 85): did not impact; also recorded: No change; C3a levels during treatment compared to baseline ([5]; avacopan 30 mg twice daily without prednisone, 6 h, days 8, 29, 85): did not impact; also recorded: No change; clinical benefit / improvement in AAV [6]: achieved clinical benefit; also recorded: rapid improvement; clinical benefit / improvement in AAV ([6]; listed as avacopan): rapidly improves; disease activity (Birmingham Vasculitis Activity Score, urinary albumin to creatinine ratio) [6, 7]: rapid decrease; health-related quality of life (EuroQOL-5D-5L, Short Form-36) [6, 7]: significant improvement
2 | C[C@]12C=CC(=O)C=C1CC[C@@H]1[C@@H]2C(=O)C[C@@]2(C)[C@H]1CC[C@]2(O)C(=O)CO [Prednisone, prednisone] | ↓ | ↓ | No changes | No statistically significant changes | No changes | No statistically significant changes | ↓ | Bb levels [1, 8]: rising again; also recorded: rose again; Bb levels compared to pre-dose ([1]; days 8 and 29, full dose prednisone 60 mg daily, tapered): decreased significantly; C5a levels compared to baseline ([2]; day 8 and 29, high dose prednisone): decreased significantly; also recorded: decrease; C5a levels [2, 8]: rising again; also recorded: rose again; C3a levels compared to baseline ([5]; 6 hours): decreased; C3a levels [5, 8]: rising again; also recorded: rose again; C3a levels compared to baseline ([5]; days 8 and 29): decreased significantly; also recorded: further decreased
